Assay results published in patent US9856298B2 (priority 2011, dated 2018).
≈ marks a conversion by molar mass, not a printed value. Like-named read-outs stand apart in the source and are kept apart here. Numbered stars: 1 amine (or outer) side, 2 acyl side, 3 side chain; on linkers, the order of the positions; unused ones are H or OH. Square brackets hold non-standard residues; d marks the D form. Primed or numbered codes have the meaning given here. Side chains are listed from the residue outwards. Ends that are not written are not given here. Peptide text beside a SMILES is read from it. * marks the point of attachment. Orn(α-tetramethylguanidino) = CN(C)C(=N[C@@H](CCCN)C(=O)*)N(C)C; δOrn(α-TMG) = CN(C)C(=N[C@@H](CCCN[*:1])C(=O)[*:2])N(C)C; Guan″ = guanidino group at the N-terminus, N=C(N)*; sPEG750 = PEG of 750 linked via acid group; Hyp = O=C(O)[C@@H]1C[C@@H](O)CN1; Tle = CC(C)(C)[C@H](N)C(=O)O; Orn = NCCC[C@H](N)C(=O)O

Tests used:
[1] = tested on: Escherichia coli strain BL21AI; test: Minimum inhibitory concentration in 1% TSB; format: cell-based; conditions: for MIC in TSB: E. coli BL21AI, 1% TSB, 20 hours at 37° C.; for Effect of peptide linker or remaining linker residues on the MIC: compared with the unmodified peptide
Experimental: (§1) To that end, the peptides were dissolved in water and diluted in a two-fold dilution series with 1% aqueous soybean medium (TSB) in sterile 96-well plates (Greiner Bio-One GmbH) from 128 μg/ml in twelve dilution steps to 62.5 ng/ml. Overnight cultures of Escherichia coli strain BL21AI were adjusted with 1% TSB to about […] colony forming units per ml. In each case 50 μl of peptide solution per well were then mixed with in each case 50 μl of the bacteria solution, in order to achieve a starting concentration of 4×10^5 bacteria per well. After incubation for 20 hours at 37° C., the absorption at 595 nm was determined (microplate reader, TECAN Trading AG).

[2] = Serum stability / release of peptide in 25% aqueous mouse serum (RP-HPLC, MALDI-MS); conditions: 25% (v/v) aqueous mouse serum
Experimental: (§2) 30 μl of a 1 mg/ml peptide solution were diluted with 120 μl of water and, after addition of 50 of serum, incubated at 37° C. for 0 hours, 0.5 hour, 1 hour, 2 hours or 4 hours. Alternatively, the peptide derivatives having a starting concentration of 3 mg/ml were diluted with serum to a final concentration of 15 μg/ml. According to the stability of the peptides, the samples were analysed at the times mentioned above or after 0 hours, 4 hours and 6 hours. The serum proteins were precipitated by addition of 50 μl of 15% TCA, and the supernatant was neutralised with 25 μl of 1 mol/l NaOH. The samples were made up to 250 μl with 5% B, 230 μl of the solution were transferred into a HPLC vial, and 220 μl were injected.
(§3) RP-HPLC analysis was carried out with a linear acetonitrile gradient (Biosolve BV, Valkenswaard, Netherlands) in the presence of 0.1% trifluoroacetic acid (TFA, UV grade, Fluka Chemie GmbH, Buchs, Switzerland) as ion-pair reagent. The fractions were co-crystallised with α-cyanohydroxycinnamic acid (Bruker Daltonik GmbH; Bremen, Germany) as matrix (4 mg/ml in 60% acetonitrile in 0.1% aqueous TFA) and analysed with a tandem mass spectrometer (MALDI-TOF/TOF-MS, 4700 Proteomics Analyzer; Applied Biosystems GmbH, Weiterstadt, Germany) in positive-ion reflector mode. The amount of intact peptides and their degradation products or metabolites could thus be identified and quantified at the individual times. 25% aqueous mouse serum, which was analysed in parallel for the same time intervals, was used as control.

[3] = tested on: Escherichia coli strain BL21AI; test: Minimum inhibitory concentration in TSB in the presence of 25% mouse serum; format: cell-based; conditions: E. coli BL21AI, TSB with 25% mouse serum, 20 hours at 37° C.
Experimental: as §1
In addition, the antibacterial activity was also determined in the presence of 25% mouse serum. To that end, the MIC values were determined as described above, but 25 μl of mouse serum were also added to each well before the incubation (25% final concentration).

[4] = Serum stability / release of peptide in pure mouse serum (100%) (RP-HPLC, MALDI-MS)
Experimental: as §2, §3

[5] = mammalian serum (25%); cited from earlier work
25% aqueous mouse serum = conditions: 37° C., up to 6 hours
[6] = mouse
Experimental: as §2, §3

[7] = mouse, serum, 6 h, 15 µg/ml
Experimental: as §2, §3

Compound: CC[C@H](C)[C@H](NC(=O)[C@H](Cc1ccc(O)cc1)NC(=O)[C@@H](NC(=O)[C@@H]1CCCN1C(=O)[C@H](CCCNC(=N)N)NC(=O)[C@H](CC(N)=O)NC(=O)[C@H](CC(N)=O)NC(=O)[C@H](CCCNC(=O)CNC(=O)[C@H](CO)NC(=O)[C@H](CCCNC(=N)N)NC(=O)[C@H](C)NC(=O)CN)N=C(N(C)C)N(C)C)C(C)C)C(=O)N1CCC[C@H]1C(=O)N[C@@H](CCCNC(=N)N)C(=O)N1CCC[C@H]1C(=O)N[C@@H](CCCNC(=N)N)C(=O)N1CCC[C@H]1C(=O)N1CCC[C@H]1C(=O)N[C@@H](Cc1c[nH]cn1)C(=O)N1CCC[C@H]1C(=O)N[C@@H](CCCNC(=N)N)C(=O)N[C@@H](CC(C)C)C(=O)O [Api 137 (GARSG)] (H-GARSG[δOrn(α-TMG)]NNRPVYIPRPRPPHPRL-OH)
- MIC in TSB [1]: 0.9 µM (≈ 2.45 µg/mL)
- half-life at 150 µg/ml [2]: 0.5 h

Compound: CC[C@H](C)[C@H](NC(=O)[C@H](Cc1ccc(O)cc1)NC(=O)[C@@H](NC(=O)[C@@H]1CCCN1C(=O)[C@H](CCCNC(=N)N)NC(=O)[C@H](CC(N)=O)NC(=O)[C@H](CC(N)=O)NC(=O)[C@H](CCCNC(=O)CNC(=O)[C@H](CO)NC(=O)[C@H](CCCNC(=N)N)NC(=O)CN)N=C(N(C)C)N(C)C)C(C)C)C(=O)N1CCC[C@H]1C(=O)N[C@@H](CCCNC(=N)N)C(=O)N1CCC[C@H]1C(=O)N[C@@H](CCCNC(=N)N)C(=O)N1CCC[C@H]1C(=O)N1CCC[C@H]1C(=O)N[C@@H](Cc1c[nH]cn1)C(=O)N1CCC[C@H]1C(=O)N[C@@H](CCCNC(=N)N)C(=O)N[C@@H](CC(C)C)C(=O)O [Api 137 (GRSG)] (H-GRSG[δOrn(α-TMG)]NNRPVYIPRPRPPHPRL-OH)
- MIC in TSB [1]: 0.7 µM (≈ 1.85 µg/mL)
- half-life at 150 µg/ml [2]: 1 h

Compound: CC[C@H](C)[C@H](NC(=O)[C@H](Cc1ccc(O)cc1)NC(=O)[C@@H](NC(=O)[C@@H]1CCCN1C(=O)[C@H](CCCNC(=N)N)NC(=O)[C@H](CC(N)=O)NC(=O)[C@H](CC(N)=O)NC(=O)[C@H](CCCN)N=C(N(C)C)N(C)C)C(C)C)C(=O)N1CCC[C@H]1C(=O)N[C@@H](CCCNC(=N)N)C(=O)N1CCC[C@H]1C(=O)N[C@@H](CCCNC(=N)N)C(=O)N1CCC[C@H]1C(=O)N1CCC[C@H]1C(=O)N[C@@H](Cc1c[nH]cn1)C(=O)N1CCC[C@H]1C(=O)N[C@@H](CCCNC(=N)N)C(=O)N[C@@H](CC(C)C)C(=O)O [Api 137, Guan-ONNRPVYIPRPRPPHPRL-OH, reference compound] ({Orn(α-tetramethylguanidino)}-NNRPVYIPRPRPPHPRL-OH)
- MIC in TSB [1]: 0.46 µM (≈ 1.05 µg/mL)
- half-life at 150 µg/ml [2]: > 6 h
- MIC in TSB/mouse serum [3]: 0.23 µM

Compound: CC[C@H](C)[C@H](NC(=O)[C@H](Cc1ccc(O)cc1)NC(=O)[C@@H](NC(=O)[C@@H]1CCCN1C(=O)[C@H](CCCNC(=N)N)NC(=O)[C@H](CC(N)=O)NC(=O)[C@H](CCCNC(=O)CNC(=O)[C@@H](N)CO)NC(=O)[C@H](CCCN)N=C(N(C)C)N(C)C)C(C)C)C(=O)N1CCC[C@H]1C(=O)N[C@@H](CCCNC(=N)N)C(=O)N1CCC[C@H]1C(=O)N[C@@H](CCCNC(=N)N)C(=O)N1CCC[C@H]1C(=O)N1CCC[C@H]1C(=O)N[C@@H](Cc1c[nH]cn1)C(=O)N1CCC[C@H]1C(=O)N[C@@H](CCCNC(=N)N)C(=O)N[C@@H](CC(C)C)C(=O)O [Api 300 (SG)] ({Orn(α-tetramethylguanidino)}-[Orn]([Gly-Ser])NRPVYIPRPRPPHPRL-OH)
- MIC in TSB [1]: 0.8 µM (≈ 1.95 µg/mL)
- Effect of peptide linker or remaining linker residues on the MIC [1]: does not increase the MIC or increases it only insignificantly
- half-life at 15 µg/ml ([4]; mouse, pure (100%) mouse serum): 4 h
- MIC in TSB/mouse serum [3]: 0.21 µM

Compound: CC[C@H](C)[C@H](NC(=O)[C@H](Cc1ccc(O)cc1)NC(=O)[C@@H](NC(=O)[C@@H]1CCCN1C(=O)[C@H](CCCNC(=N)N)NC(=O)[C@H](CCCNC(=O)CNC(=O)[C@@H](N)CO)NC(=O)[C@H](CC(N)=O)NC(=O)[C@H](CCCN)N=C(N(C)C)N(C)C)C(C)C)C(=O)N1CCC[C@H]1C(=O)N[C@@H](CCCNC(=N)N)C(=O)N1CCC[C@H]1C(=O)N[C@@H](CCCNC(=N)N)C(=O)N1CCC[C@H]1C(=O)N1CCC[C@H]1C(=O)N[C@@H](Cc1c[nH]cn1)C(=O)N1CCC[C@H]1C(=O)N[C@@H](CCCNC(=N)N)C(=O)N[C@@H](CC(C)C)C(=O)O [Api 301 (SG)] ({Orn(α-tetramethylguanidino)}-N[Orn]([Gly-Ser])RPVYIPRPRPPHPRL-OH)
- MIC in TSB [1]: 1.6 µM (≈ 3.9 µg/mL)
- Effect of peptide linker or remaining linker residues on the MIC [1]: does not increase the MIC or increases it only insignificantly
- remaining at 4 h, 15 µg/ml ([4]; mouse, pure (100%) mouse serum): 60%

Compound: CC[C@H](C)[C@H](NC(=O)[C@H](CCCN)NC(=O)[C@H](CCCNC(=N)N)NC(=O)[C@@H]1CCCN1C(=O)[C@@H]1CCCN1C(=O)[C@H](CCCNC(=N)N)NC(=O)[C@@H]1CCCN1C(=O)[C@H](CCCNC(=N)N)NC(=O)[C@@H]1CCCN1C(=O)[C@H](CC(C)C)NC(=O)[C@H](Cc1ccc(O)cc1)NC(=O)[C@@H]1CCCN1C(=O)[C@@H]1CCCN1C(=O)[C@H](CCCCN)NC(=O)[C@H](CC(=O)O)NC(=O)[C@@H](NC(=O)[C@H](CCCNC(=N)N)NC(=O)[C@H](C)NC(=O)CN)C(C)C)C(=O)N[C@@H](Cc1ccc(O)cc1)C(=O)N[C@@H](CC(N)=O)C(=O)N[C@@H](CCCN)C(N)=O [GAR-Onc 72, GAR-VDKPPYLPRPRPPROIYNO-NH2] (H-GARVDKPPYLPRPRPPR[Orn]IYN[Orn]-NH2)
- MIC in TSB [1]: 3.1 µM (≈ 8.03 µg/mL)
- Effect of peptide linker or remaining linker residues on the MIC [1]: does not increase the MIC or increases it only insignificantly
- remaining at 4 h, 15 µg/ml ([4]; mouse, pure (100%) mouse serum): 85%

Compound: CC(C)C[C@H](NC(=O)[C@H](Cc1ccc(O)cc1)NC(=O)[C@@H]1CCCN1C(=O)[C@@H]1CCCN1C(=O)[C@H](CCCCN)NC(=O)[C@H](CC(=O)O)NC(=O)[C@@H](NC(=O)[C@H](CCCNC(=N)N)NC(=O)[C@H](C)NC(=O)CN)C(C)C)C(=O)N1CCC[C@H]1C(=O)N[C@@H](CCCNC(=N)N)C(=O)N1CCC[C@H]1C(=O)N[C@@H](CCCNC(=N)N)C(=O)N1CCC[C@H]1C(=O)N1C[C@H](O)C[C@H]1C(=O)N[C@@H](CCCNC(=N)N)C(=O)N1C[C@H](O)C[C@H]1C(=O)N[C@H](C(=O)N[C@@H](Cc1ccc(O)cc1)C(=O)N[C@@H](CC(N)=O)C(=O)N[C@@H](CCCN)C(N)=O)C(C)(C)C [GAR-Onc 110] (H-GARVDKPPYLPRPRP[Hyp]R[Hyp][Tle]YN[Orn]-NH2)
- MIC in TSB [1]: 1.5 µM (≈ 3.91 µg/mL)
- Effect of peptide linker or remaining linker residues on the MIC [1]: does not increase the MIC or increases it only insignificantly
- remaining at 4 h, 15 µg/ml ([4]; mouse, pure (100%) mouse serum): 75%
- MIC in TSB/mouse serum [3]: 0.65 µM

Compound: GKPRPYSPRPTSHPRPIRV [drosocin]
- Time to degradation in mammalian serum [5]: degraded within an hour

Compound: Guan-O(GARSG)NNRPVYIPRPRPPHPRL-OH (H-GARSG[δOrn(α-TMG)]NNRPVYIPRPRPPHPRL-OH; SMILES CC[C@H](C)[C@H](NC(=O)[C@H](Cc1ccc(O)cc1)NC(=O)[C@@H](NC(=O)[C@@H]1CCCN1C(=O)[C@H](CCCNC(=N)N)NC(=O)[C@H](CC(N)=O)NC(=O)[C@H](CC(N)=O)NC(=O)[C@H](CCCNC(=O)CNC(=O)[C@H](CO)NC(=O)[C@H](CCCNC(=N)N)NC(=O)[C@H](C)NC(=O)CN)N=C(N(C)C)N(C)C)C(C)C)C(=O)N1CCC[C@H]1C(=O)N[C@@H](CCCNC(=N)N)C(=O)N1CCC[C@H]1C(=O)N[C@@H](CCCNC(=N)N)C(=O)N1CCC[C@H]1C(=O)N1CCC[C@H]1C(=O)N[C@@H](Cc1c[nH]cn1)C(=O)N1CCC[C@H]1C(=O)N[C@@H](CCCNC(=N)N)C(=O)N[C@@H](CC(C)C)C(=O)O)
- cleaved bond (25% aqueous mouse serum): R-S

Compound: Guan-O(sPEG^750-GARSG)NNRPVYIPRPRPPHPRL-OH
- cleaved bond (25% aqueous mouse serum): R-S

Compound: Guan-O(sPEG^750-GARSG)NNRPVYIPRPRPPHPRL-OH ({Guan″}-[Orn]NNRPVYIPRPRPPHPRL-OH; not fully specified (residue 1)) [Api 137 (sPEG^750-GARSG)]
- MIC in TSB [1]: 1.1 µM
- Half-life (t1/2) in 25% serum [6]: 1 h

Compound: Guan-O(sPEG^750-GRSG)NNRPVYIPRPRPPHPRL-OH
- cleaved bond (25% aqueous mouse serum): R-S

Compound: Guan-O(sPEG^750-GRSG)NNRPVYIPRPRPPHPRL-OH ({Guan″}-[Orn]([Gly-Ser-Arg-Gly-sPEG750])NNRPVYIPRPRPPHPRL-OH) [Api 137 (sPEG^750-GRSG)]
- Half-life (t1/2) in 25% serum [6]: 2 h

Compound: sPEG^750-GAR-VDKPPYLPRPRPHypRHypTleYNO-NH2 (sPEG750-GARVDKPPYLPRPRP[Hyp]R[Hyp][Tle]YN[Orn]-NH2) [sPEG^750-GAR-Onc 110]
- MIC in TSB [1]: 24.3 µM
- uncleaved peptide remaining after the indicated time (instead of half-life) [7]: 73%
- MIC in TSB/mouse serum [3]: 9.2 µM

Compound: sPEG^750-GAR-VDKPPYLPRPRPPROIYNO-NH2 (sPEG750-GARVDKPPYLPRPRPPR[Orn]IYN[Orn]-NH2) [sPEG^750-GAR-Onc 72]
- MIC in TSB [1]: 12.2 µM
- Half-life (t1/2) in serum ([4]; pure mouse serum, 37° C.): 6 h
- MIC in TSB/mouse serum [3]: 6.1 µM

Compound: tPEG^750-GAR-VDKPPYLPRPRPPROIYNO-NH2 (tPEG750-GARVDKPPYLPRPRPPR[Orn]IYN[Orn]-NH2; not fully specified; printed as tPEG^750-GAR-VDKPPYLPRPRPPROIYNO-NH2) [tPEG^750-GAR-Onc 72]
- MIC in TSB [1]: 24.3 µM
- uncleaved peptide remaining after the indicated time (instead of half-life) ([4]; pure mouse serum, 6 h): 55%
